Reference: the supplement of paper PMC11208160

Assay: recombinant UMI read abundance after kanamycin selection (control-corrected) (log10(CPM+1)); higher = more efficient recombination; extreme values may be limits of the assay; sequences stand for … in AGTGCAGAGAAAATCGGCCAGTTTTCTCTGCCTGCAGTCCGCATGCCGTGGGACCCCTTGGGTTCTAACCTGTTGCCTAGATTTATGCAGCGGACTGCCTTTCTCCCAAAGTGATAAACCGG…AGGTTGGTTTCACT; site = the 11-nt donor
How it was run: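 The measure is log10(CPM+1) for recombinant UMIs. These were PCR-amplified across the donor–target junction and sequenced after Escherichia coli carrying a donor and donor-binding-loop pair library and a target plasmid with T7-inducible IS621 bridge recombinase was plated on IPTG (0.07 mM) plus kanamycin or unselected. CPM were averaged over two replicates and scaled by control-derived factors.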
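Further: IS621 bridge recombinase in Escherichia coli cells against a fixed T5 target plasmid.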

Sequence	recombinant UMI read abundance (log10)
TGCAAGGCATGGACCGGTTTTCCCGGTAATCCGTATTTGGT (site TGCTAGGCTAC)	0.0166
CCCAGTCCATGGACCGGTTTTCCCGGTAATCCGTATTTGCA (site CCCCGTCCTTG)	0
ACAGTATCATGGACCGGTTTTCCCGGTAATCCGTATTTGCA (site ACAGTGCCTTG)	0.121
GATTATCCATGGACCGGTTTTCCCGGTAATCCGTATTTGCT (site GCTTATCCTAG)	0
CCGTTTACATGGACCGGTTTTCCCGGTAATCCGTATTTGCT (site CCGTTAACTAG)	0
GAAGATTCATGGACCGGTTTTCCCGGTAATCCGTATTTGTT (site GAAGATTCTGA)	0
TATCTAGCATGGACCGGTTTTCCCGGTAATCCGTATTTGAA (site TATCTAGCTTT)	0.502
TGCTAGGCATGGACCGGTTTTCCCGGTAATCCGTATTTGGA (site TGCTAGGCTCC)	0.0137
GCCAATTCATGGACCGGTTTTCCCGGTAATCCGTATTTGCC (site TCCAATTCTGG)	0
GTAGTATCATGGACCGGTTTTCCCGGTAATCCGTATTTGCC (site GTAGTATCTGG)	2.55
CTAGCATCATGGACCGGTTTTCCCGGTAATCCGTATTTGCC (site CTAGCATCTGG)	2.4
ACTAGTGCATGGACCGGTTTTCCCGGTAATCCGTATTTGCT (site ACTAGTGCTAC)	0.00908
ATTTAGGCATGGACCGGTTTTCCCGGTAATCCGTATTTGGC (site ATTTAGGCTGC)	1.93
CAAGTCACATGGACCGGTTTTCCCGGTAATCCGTATTTGGG (site CAATTCACTCC)	0.0165
CGGAAACCATGGACCGGTTTTCCCGGTAATCCGTATTTGTT (site CGGAACCCTAA)	0.00618
TCGACTTCATGGACCGGTTTTCCCGGTAATCCGTATTTGTG (site TCGACTTCTCA)	0
TGCTGCCCATGGACCGGTTTTCCCGGTAATCCGTATTTGTC (site TGCTGCCCTGA)	0.338
TACAATTCATGGACCGGTTTTCCCGGTAATCCGTATTTGCC (site TTCAATTCTGG)	0
GTGGTTCCATGGACCGGTTTTCCCGGTAATCCGTATTTGGT (site GTGGTTCCTAC)	0.0114
GGGGAACCATGGACCGGTTTTCCCGGTAATCCGTATTTGCA (site GGGGCACCTTG)	0
ACACGTACATGGACCGGTTTTCCCGGTAATCCGTATTTGTC (site ACACGGACTGA)	0
CGGTTAGCATGGACCGGTTTTCCCGGTAATCCGTATTTGTG (site CGGTTAGCTCA)	1.7
CTCTAGACATGGACCGGTTTTCCCGGTAATCCGTATTTGCT (site CTCTAAACTAG)	0.681
AGGAAATCATGGACCGGTTTTCCCGGTAATCCGTATTTGCA (site AGGAAATCTTG)	1.9
AAGCAGGCATGGACCGGTTTTCCCGGTAATCCGTATTTGGG (site AAGCATGCTCC)	0.00333

Sequence	recombinant UMI read abundance (log10)
AGCTGAGCATGGACCGGTTTTCCCGGTAATCCGTATTTGCC (site AGCTGAGCTGG)	0.908
GCCGCCCCATGGACCGGTTTTCCCGGTAATCCGTATTTGGC (site GCCGCCCCTGC)	0
AGGCAGGCATGGACCGGTTTTCCCGGTAATCCGTATTTGCA (site AGGAAGACTTG)	0
CCAGGGGCATGGACCGGTTTTCCCGGTAATCCGTATTTGAT (site CCAGGTGCTAT)	0.888
AGGTCAACATGGACCGGTTTTCCCGGTAATCCGTATTTGAT (site AGGTCAACTAT)	0.075
CCCTAGCCATGGACCGGTTTTCCCGGTAATCCGTATTTGCC (site GCCTAGCCTGG)	0
GAACATACATGGACCGGTTTTCCCGGTAATCCGTATTTGGG (site GAACATACTCC)	0.24
TGCGGTTCATGGACCGGTTTTCCCGGTAATCCGTATTTGAA (site TGCGGTTCTTT)	0.557
ACCAATTCATGGACCGGTTTTCCCGGTAATCCGTATTTGCT (site ACCAATTCTAG)	2.42
CCTCACACATGGACCGGTTTTCCCGGTAATCCGTATTTGTA (site CCACACACTTA)	0
TACTTGGCATGGACCGGTTTTCCCGGTAATCCGTATTTGGA (site AACTTGGCTTC)	0.0162
ATGGAAACATGGACCGGTTTTCCCGGTAATCCGTATTTGCA (site TTGGAAACTTG)	0.684
GTGCATGCATGGACCGGTTTTCCCGGTAATCCGTATTTGGG (site GTGCATGCTTC)	0.0162
CTACTAACATGGACCGGTTTTCCCGGTAATCCGTATTTGGA (site CTACTATCTTC)	1.4
GTTTGAGCATGGACCGGTTTTCCCGGTAATCCGTATTTGCA (site GTTCGAGCTTG)	1.89
GCCGTACCATGGACCGGTTTTCCCGGTAATCCGTATTTGTT (site GCCGTACCTAA)	0.0103
ATCATTGCATGGACCGGTTTTCCCGGTAATCCGTATTTGGC (site ATCATTGCTGC)	2.13
AACCCTCCATGGACCGGTTTTCCCGGTAATCCGTATTTGAT (site AACCTTCCTAT)	0.011
GCGAAAACATGGACCGGTTTTCCCGGTAATCCGTATTTGTT (site GCGAAAACTAT)	0
AGGTTCCCATGGACCGGTTTTCCCGGTAATCCGTATTTGTG (site AGGTTCTCTCA)	0.634
CAGACGCCATGGACCGGTTTTCCCGGTAATCCGTATTTGAC (site CAGACGCCTGT)	1.91
CACTCGACATGGACCGGTTTTCCCGGTAATCCGTATTTGGG (site CAGTCGACTCC)	0
GGCAATCCATGGACCGGTTTTCCCGGTAATCCGTATTTGAA (site GGCAACCCTTT)	0.00936
AGTGCGACATGGACCGGTTTTCCCGGTAATCCGTATTTGCA (site AGTGCGACTTG)	1.38
ACACGAACATGGACCGGTTTTCCCGGTAATCCGTATTTGTC (site ACACGACCTGA)	0

Sequence	recombinant UMI read abundance (log10)
AATGTAACATGGACCGGTTTTCCCGGTAATCCGTATTTGCT (site AAAGTAACTAG)	1.76
GGATTTACATGGACCGGTTTTCCCGGTAATCCGTATTTGAG (site GGATTTACTCT)	0.713
CGGTGTCCATGGACCGGTTTTCCCGGTAATCCGTATTTGTT (site CGGAATCCTAA)	0.0121
TCCTGGCCATGGACCGGTTTTCCCGGTAATCCGTATTTGTG (site TCCTGGCCTCA)	0.00405
TCCAGTTCATGGACCGGTTTTCCCGGTAATCCGTATTTGCC (site TCCATTTCTGG)	0
CGGCACCCATGGACCGGTTTTCCCGGTAATCCGTATTTGTT (site CGGAATCCTAA)	0.00519
TATCTGGCATGGACCGGTTTTCCCGGTAATCCGTATTTGTG (site TATGTGGCTCA)	0.00259
CTATCCTCATGGACCGGTTTTCCCGGTAATCCGTATTTGCT (site CGATCATCTAG)	0
AGGTTCCCATGGACCGGTTTTCCCGGTAATCCGTATTTGTG (site AGGGTCCCTCA)	0.0158
AACTATTCATGGACCGGTTTTCCCGGTAATCCGTATTTGTC (site AACTATTCTGA)	0.671
CTGGTAACATGGACCGGTTTTCCCGGTAATCCGTATTTGCA (site CTGGAAACTTG)	1.03
TGAAGGACATGGACCGGTTTTCCCGGTAATCCGTATTTGAC (site TGAAGGACTGT)	2.4
CGAGATCCATGGACCGGTTTTCCCGGTAATCCGTATTTGTT (site CGGAATCCTAA)	0
AGCCTTTCATGGACCGGTTTTCCCGGTAATCCGTATTTGAC (site ACCCTTTCTGT)	0
AATAGCACATGGACCGGTTTTCCCGGTAATCCGTATTTGGC (site AATAGCACTGC)	2.04
GTCGTCGCATGGACCGGTTTTCCCGGTAATCCGTATTTGCG (site GTGGTCGCTCG)	0.00908
AATTCTGCATGGACCGGTTTTCCCGGTAATCCGTATTTGGA (site AATTCTGCTTC)	0.349
CGATGTCCATGGACCGGTTTTCCCGGTAATCCGTATTTGGA (site CGATGTCCTTC)	0.0178
CAATCGGCATGGACCGGTTTTCCCGGTAATCCGTATTTGAC (site CAATCGGCTGT)	1.77
CCGAAGCCATGGACCGGTTTTCCCGGTAATCCGTATTTGGG (site CCGAAGCCTCC)	0.0077
CCAGATGCATGGACCGGTTTTCCCGGTAATCCGTATTTGCG (site CCAGATGCTCG)	1.59
TAGGATACATGGACCGGTTTTCCCGGTAATCCGTATTTGCA (site TAGTATACTTG)	1.44
GCCACGGCATGGACCGGTTTTCCCGGTAATCCGTATTTGTA (site GCCACGACTTA)	1.24
AGAAAGACATGGACCGGTTTTCCCGGTAATCCGTATTTGCA (site AGAAAGACTTG)	2.6
TTCGCTGCATGGACCGGTTTTCCCGGTAATCCGTATTTGTG (site TTAGCTGCTCA)	0.018
